Results published in patent publication US12193465B2, “Materials and methods for extending shelf-life of foods” (JP Laboratories, Inc., priority 2021, dated 2025).
Where a name gives a salt, the structure may show the parent alone. Read-outs that look alike come from different tables or passages of the source.

Legend:
[1] = system: green tomato, papaya, banana, mango, peppers, tindora; assay: Ripening of fruits and vegetables (delayed or expedited); settings: for Spoilage Time - Sample (Expedited ripening): control 14+ days; for Ripening, green-to-yellow (or red) color-change: pre-dipping into 10% solution
Experimental: (§1) All studies were conducted at a room temperature of about 25° C. To determine the effectiveness of a shelf-life extender, a control sample which was untreated with any shelf-life extenders, was tested identical to the test samples. […] All studies in those Examples of Tables 1-6 were conducted in closed plastic or glass containers. Containers, such as plastic containers, without or with lids having holes can be used if it is advantageous to let excess moisture escape or to prevent condensation of moisture released by some produce.
(§2) For controlled exposure and a constant supply of a preservative to foods, sachets containing one or more drops of preservatives were used. Sachets were made by placing an appropriate amount of a preservative in a plastic bag containing a piece of paper and heat sealing the bag. The sachet bag materials used were Tyvek® for solid preservative, polyethylene, polyester and high barrier multilayer films were used for liquid preservatives. These bags were sealed with a heat sealer. The sachet was typically applied on one side of the container containing food.
(§3) A piece of paper napkin was taped inside a 100 microns thick polyethylene or polyester Ziploc bag. The size of the bag varied from ˜20 cm×30 cm to ˜60 cm×90 cm depended on the sample with sandwich bags up to gallon bags being exemplary. The paper napkin was wetted with 0.1-0.5 ml of a preservative or a mixture of preservatives. A tray of aluminum, stainless steel or glass containing the foods was placed inside the plastic (polyethylene, polyester and multilayer-laminated) bag and almost closed by locking the Ziploc. Air was blown with an air blower from the unclosed end until the bag was fully blown and then quickly closed tightly by locking the remaining Ziploc. If a preservative was a sublimable solid, it was placed in a petri dish and then placed inside the bag in the tray before blowing air. The exposure time was varied from five minutes to a day depending upon the food. […] The assembly was shaken periodically. After the predetermined time, the tray containing produce was removed from the bag, allowed to de-gas for 10-30 minutes in air and the produce was then placed in an appropriately sized container. Glass and stainless steel containers with lids were also often used.
(§4) A solution of one or more preservatives was prepared in a large (e.g., 2-10 liter) glass beaker or a jar. A sack containing the food was prepared by placing the food in a plastic mesh bag. The sack was placed in the solution of the preservative. A smaller glass beaker containing proper amount of water was place over the package to keep the sack soaked in the solution of the preservative during the treatment. The solution was stirred either with a plastic spatula or with a magnet over a magnetic stirrer. After treatment, the mesh sack was removed, the produce was washed in a tray with running water, strained and air dried at 30° C. in an air blowing oven for about 5-10 minutes, while shaking the tray or turning the food periodically followed by placing the sample in an appropriate container.
The untreated (control sample) and treated food were placed in proper sized plastic containers and the containers were tightly closed.
The following major criteria were used for determining spoilage of foods: growth of fungus, color change, unpleasant odor, wilting, firmness or shriveling, change of state (liquid to solid or vice versa), and sprouting or germination Example 10: Sources of food.

[2] = General shelf-life extension of foods (spoilage criteria of Example 9); settings: for Effectiveness for controlling one or more spoilage criteria: variety of foods
Experimental: as §1
(§5) Food exposed to preservatives or by a sachet was placed in typically polystyrene or acrylic containers depending upon the size and number of food items. Glass jars and bottles were also used. The containers were snap-closed or with a lid. The containers were purchased mainly from Amazon or Webstaurant.com store. When needed, plastic containers with holes or without lids were used.
as §2, §3, §4
(§6) The food was placed in mesh trays and sprayed with an aqueous solution (1-10%) of a preservative while shaking the tray or turning the food. The solution was allowed to drain from the tray and the food was air dried in an air blowing oven at 30° C. for about 5-10 minutes, while shaking the tray or turning food periodically followed by placing the sample in an appropriate container.

fungus = assay: Fungus growth on treated foods stored in closed containers at room temperature;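 on Effectiveness on ginger: compared with untreated control ginger in closed containers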
From the text: (§7) Most of the foods changed color or texture.
Glass jars and bottles were also used. The containers were snap-closed or with a lid.
(§8) These bags were sealed with a heat sealer.
(§9) The assembly was shaken periodically.

[3] = Color change / browning / yellowing of foods (keeping produce green longer); settings: for Spoilage Time - Sample (Color change): 2% in water sprayed
Experimental: as §1, §5, §2, §3, §4, §6

avocado = assay: Softening / rotten inside (spoiled flesh) of avocado
From the text: as §7, §9

[4] = system: grains, legumes, potatoes, garlic; assay: Germination / sprouting of grains, legumes and tubers; settings: for Spoilage Time - Sample: Example 111, Germination, Mixed Legumes, 64 hrs P-E, control 3 days
From the text: as §8, §9

[5] = Color loss of meat and fish; settings: for Spoilage Time - Sample (Color loss): Sachet, control 2 days
From the text: as §7, §8

[6] = system: parval, methi, coriander, radish, guar; assay: Shriveling / wilting / dehydration / becoming wet of produce; settings: for Spoilage Time - Sample (Dehydration): 0.08 hr soaking in 22% solution in water
From the text: as §7, §9

[7] = Curdling / cream / solidification of milk; settings: pasteurized whole and fat-free milk;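 further: compared with untreated control milk in closed containers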
From the text: as §7

CCCCOCCO [2-butoxyethanol, 2-Butoxyethanol]
Spoilage Time - Sample (Expedited ripening) ([1]; Mango, Sachet): 8 days
Effectiveness for controlling one or more spoilage criteria [2]: effective to a greater or lesser extent
Fungus growth (fungus; 312 h): > 29 days
Spoilage Time - Sample (Fungus) (fungus; Red tomato, 2 hrs P-E, control 13 days): 29 days

CCOCCO [2-ethoxyethanol, 2-Ethoxyethanol]
Spoilage Time - Sample (Ripening) ([1]; Mango, 2 hrs P-E, control 16 days): 23 days

O=C1C=CCCC1 [2CY, 2-Cyclohexen-1-one]
Spoilage Time - Sample ([3]; Example 114, Yellowing, Coriander, 1 hr P-E, control 10 days): 10+ days
Spoilage Time - Sample ([3]; Example 114, Yellowing, Coriander, 1 hr P-E, control 10 days, listed as 2-cyclohexen-1-one): significantly delayed
Spoilage Time - Sample (avocado; Example 113, Softening, Avocado, 2 hrs P-E, control 2 days): 2 days
Spoiling of the flesh with development of fungus (avocado; avocados, Examples 77, 78, 107, 108, 113 & 171): significantly delayed
Spoilage Time - Sample ([1]; Example 112, Ripeness, Papaya, 2 hrs P-E, control 7 days): 11 days
Spoilage Time - Sample ([1]; Example 112, Ripeness, Papaya, 2 hrs P-E, control 7 days, listed as 2-cyclohexen-1-one): at least 11 days
Effectiveness in delaying the ripening of tomatoes ([1]; unsaturated versus saturated homolog): more effective
Shelf-life of flowery vegetables [2]: extended shelf-life
Shelf-life of shelled and unshelled peanuts ([2]; peanuts): extended
Effectiveness for controlling one or more spoilage criteria [2]: effective to a greater or lesser extent
Spoilage Time - Sample [4]: 3 days
Spoilage Time - Sample ([4]; listed as 2-cyclohexen-1-one): delayed or prevented
Effectiveness on ginger (fungus; ginger, pre-exposure and sachet method): found effective

NCCN [ED, Ethylenediamine]
Spoilage Time - Sample ([3]; Example 131, Color change, Parsley, 0.25 hr P-E, control 7 days): 22+ days
Spoilage Time - Sample ([3]; Example 131, Color change, Parsley, 0.25 hr P-E, control 7 days, listed as ethylenediamine): significantly delayed
Spoilage Time - Sample ([1]; Example 132, Ripening, Banana, 0.25 hr P-E, control 18 days): 21+ days
Spoilage Time - Sample ([1]; Example 132, Ripening, Banana, 0.25 hr P-E, control 18 days, listed as ethylenediamine): > 21 days
Effectiveness for controlling one or more spoilage criteria [2]: effective to a greater or lesser extent

N.NC(=O)O [ammonium carbamate, Ammonium carbamate]
Shelf-life of flowery vegetables [2]: extended shelf-life
Loss of pinkish fleshy color ([5]; Example 143, ground beef, sachet, 3rd day, control within 2 days): lost less fleshy pinkish color
Spoilage Time - Sample (Fungus) (fungus): 80+ days

C[N+](C)(C)CCO.[Cl-] [choline chloride, Choline chloride]
Spoilage Time - Sample (Color loss) ([3]; Broccoli, 1 hr soaking in 5% solution in water, control 1 day): 8 days
Remaining green ([3]; Example 149, Bok choy, pre-dipped into 22% solution): remained green longer
Color change ([3]; Example 150, parsley, pre-dipping/rinsing in 22% solution): delayed the color change
Color change from green-to-yellow ([3]; Example 152, broccoli, dipped into 5% solution): significantly delayed
Ripening, green-to-yellow (or red) color-change ([1]; Example 151, green chili peppers): delayed
Ripening, green-to-yellow (or red) color-change ([1]; Example 153, Jalapeno peppers): delayed
Spoilage Time - Sample (Ripening) ([1]; Jalapeño Peppers, 1 hr soaking in 10% solution in water, control 3 days): 8 days
Spoilage Time - Sample (Ripening) ([1]; Peppers, 2 hrs soaking in 10% solution in water, control 6 days): 13 days
Sprouting ([4]; Example 154, potatoes, pre-dipping into 10% solution): either prevented or significantly delayed
Spoilage Time - Sample (Sprouting) ([4]; Fingerling Potatoes, 2 hrs soaking in 10% solution in water, control 10 days): 16 days
Spoilage Time - Sample (Dehydration) ([6]; Bok Choy, control 7 days): 11 days
Spoilage Time - Sample (Dehydration) ([6]; Parsley, control 7 days): 11 days

COC(=O)OC [dimethyl carbonate, Dimethyl carbonate]
Expedited ripening ([1]; Example 155, mango, control around 14 days): 8 days
Spoilage Time - Sample (Expedited ripening) ([1]; Mango, Sachet): 8 days
Effectiveness for controlling one or more spoilage criteria [2]: effective to a greater or lesser extent

COC(=O)/C=C\C(=O)OC [dimethyl maleate, Dimethyl maleate]
Ripening ([1]; Example 156, mangoes, sachet, control 16 days): 23 days
Spoilage Time - Sample (Ripening) ([1]; Mango, Sachet, control 16 days): 23 days

O=C(O)C(O)c1ccccc1 (stereo not shown) [mandelic acid, Mandelic Acid]
Spoilage of coriander ([3]; Example 161, soaking in 1% solution): significantly delayed
Spoilage Time - Sample (Wet) ([6]; Coriander, 0.5 hr soaking in 1% solution in water, control 7 days): 7+ days

OB(O)c1ccccc1 [phenylboronic acid, Phenylboronic acid]
Spoilage Time - Sample (Color change) ([3]; Broccoli, control 4 days): 28 days
Color change from green to brown on the skin ([3]; Example 137, limes, sprayed with 2% solution in water, room temperature, control 6 days): > 10 days
Spoilage Time - Sample (Color change) ([3]; Lime, control 6 days): 6+ days
Spoilage Time - Sample (Color change) ([3]; Methi, control 4 days): 28 days
Curdling of milk [7]: delayed curdling
Germination/sprouting ([4]; Example 140, grains, mainly unhusked rice and soft white wheat, 2% spray, control 2 days): > 10 days
Spoilage Time - Sample (Germination) ([4]; Grains (mixed legumes and soft white wheat), 2% in water sprayed, control 2 days): 7+ days
Spoilage Time - Sample (Fungus) (fungus; Blueberry, 2% in water sprayed, control 6 days): 10+ days
Spoilage Time - Sample (Fungus) (fungus; Strawberry, 2% in water sprayed, control 6 days): 10+ days
Fungus growth (fungus; strawberries, raspberries, blackberries and lychee): either prevented or significantly delayed

(−)-Menthone
Shelf-life of flowery vegetables [2]: extended shelf-life
Dehydration/wilting ([6]; Example 162, radish, vapor, control 5 days): less dehydration/wilting
Spoilage Time - Sample (Shriveling) ([6]; Radish, 2 hrs P-E, control 5 days): 5 days

Ammonium carbonate
Shelf-life of flowery vegetables [2]: extended shelf-life
Effectiveness as shelf-life extender ([2]; tofu): effective
Spoilage Time - Sample (Color loss) ([5]; Ground Beef): 2+ days
Spoilage Time - Sample (Color loss) ([5]; Ground Chicken): 2+ days
Spoilage Time - Sample (Color loss) ([5]; Tilapia fish fillet): 2+ days
Improvements with meat and fish ([5]; meat and fish): demonstrated improvements
